Source: PMC10817097, “Caffeic Acid Phosphanium Derivatives: Potential Selective Antitumor, Antimicrobial and Antiprotozoal Agents” (International Journal of Molecular Sciences, 2024)
≈ marks a conversion by molar mass, not a printed value.

Tests used:
Format in all cases: cell-based
[1] = system: tested cancer cell lines; test: MTS assay, span over the tested cell lines; conditions: Homo sapiens, 72 h
Method: (§1) The human cancer cell line HCT116 (human colorectal adenocarcinoma), HeLa (human cervical adenocarcinoma), Jurkat (human leukemic T cell lymphoma), and MDA-MB-231 (human mammary gland adenocarcinoma, triple-negative) were cultured in RPMI 1640 medium (Biosera, Kansas City, MO, USA). MCF-7 (human breast adenocarcinoma), A2058 (human metastatic melanoma), PANC-1 (human pancreatic adenocarcinoma), and NIH 3T3 (murine fibroblasts) cell lines were maintained in a growth medium consisting of high glucose Dulbecco’s Modified Eagle Medium with sodium pyruvate (Biosera, Kansas City, MO, USA). MCF-10A cell line (human mammary gland epithelial cells) was maintained in a growth medium consisting of high glucose DMEM F12 Medium (Biosera, Kansas City, MO, USA) + Suppl. (insulin, EGF-[…], HC-hydrocortisone, choleratoxin all Sigma, Steinheim, Germany). The growth medium was supplemented with a 10% fetal bovine serum, penicillin (100 IU/mL), and streptomycin (100 μg/mL) (all Invitrogen, Carlsbad, CA, USA), and cells were maintained in an atmosphere containing 5% CO2 in humidified air at 37 °C. Cell viability, estimated by trypan exclusion, was greater than 95% before each experiment.
(§2) The metabolic activity colorimetric assay (MTS) was used to determine the effects of CA (c = 10–300 µM) and compounds CAP 6, CAP 8, CAP 10, and CAP 12 (c = 1–100 µM) on the metabolic activity of several cell lines. After 72 h of incubation, 10 µL of MTS (Promega, Madison, WI, USA) was added to each well according to the CellTiter 96® AQueous One Solution Cell Proliferation Assay protocol. After a minimum of 1 h incubation, the absorbance was measured at 490 nm using the automated Cytation^TM 3 Cell Imaging Multi-Mode Reader (Biotek, Winooski, VT, USA). The absorbance of the control wells was taken as 1.0 (100%), and the results were expressed as a fold of the control. All experiments were performed in triplicate. Ideal predictive IC50 values were calculated from MTS analyses-based concentration concentration-dependent trends.

[2] = system: NIH 3T3 (murine fibroblasts); test: MTS cell proliferation/viability assay, control cells; conditions: Mus musculus, NIH3T3, NIH 3T3 control cells, 72 h
Method: as §1, §2

[3] = system: MCF-10A cell line (human mammary gland epithelial cells); test: as above; conditions: MCF-10A control cells, 72 h
Method: as §1, §2

[4] = system: S. aureus (MS) CCM 4223; test: Broth microdilution MIC and MBC; conditions: Staphylococcus aureus, CCM4223, S. aureus methicillin-susceptible CCM 4223; for MBC: inactivating 99.9% of inoculum
Method: (§3) The antimicrobial activity of caffeic acid and its semi-synthetic derivates was tested against Gram-positive (Staphylococcus aureus CCM 4750, methicillin-resistant; Staphylococcus aureus CCM 4223, methicillin-susceptible; Enterococcus faecalis CCM 4224) and Gram-negative bacteria (Pseudomonas aeruginosa CCM 3955; Escherichia coli CCM 3954; Klebsiella pneumoniae CCM 4415; Proteus mirabilis CCM 7188), and one strain of a yeast Candida albicans (CCM 8267). Microbial strains were purchased from the Czech Collection of Microorganisms, Brno, Czech Republic, and preserved in aliquots in cryoprotective media at −20 °C until the testing. Revival of cryoprotected bacteria took place by overnight cultivation on blood agar and an additional passage on blood agar. Minimal inhibitory concentrations (MIC) against bacteria were detected by broth microdilution test in sterile 96-well U-shaped microtiter plates (Roll s.a.s., Piove di Sacco, Italy) according to the EUCAST recommendations. The test was performed in 100 μL volumes in microtiter plate wells with a final bacterial concentration of 5 × 10^5 CFU·mL^−1. Antifungal activity testing was performed according to the EUCAST-recommended method for the determination of broth dilution minimum inhibitory concentrations of antifungal agents for yeasts, with some modifications. The final yeast concentration in the test wells was 10^4 CFU·mL^−1. The minimal bactericidal/fungicidal concentrations (MBC/MFC) were detected by point-inoculation of 5 μL aliquots from test wells without visible growth on solid agar media free of antimicrobials. Mueller–Hinton broth and agar were used for bacteria, and Sabouraud dextrose broth and agar for fungi (OXOID, Basingstoke, Hampshire, UK). The tested agents were dissolved in 50% ethanol, and serial dilutions were prepared in the test medium to obtain final concentrations ranging from 5000 to 5 μg·mL^−1, which corresponds to 27,753—54 μM for caffeic acid, 7251—14 μM for CAP 6, 6967—14 μM for CAP 8, 6705—13 μM for CAP 10 and 6462—13 μM for CAP 12. Wells with media free of bacteria served as sterility control and wells with bacteria without antimicrobial agents were used as growth control. The MIC was determined to be the lowest concentration of the antimicrobial agent inhibiting the growth of the tested microorganism, and the MBC/MFC was determined to be the lowest concentration, inactivating 99.9% of microbial inoculum. All tests were performed in three independent runs to exclude possible excessive values due to permissible measurement error.

[5] = system: Escherichia coli CCM 3954; test: Broth microdilution MIC and MBC; conditions: for MIC: CCM3954, E. coli CCM 3954; for MBC: CCM3954, E. coli CCM 3954, inactivating 99.9% of inoculum
Method: as §3

[6] = system: Staphylococcus aureus (MR) CCM 4750; test: Broth microdilution MIC and MBC; conditions: for MIC: CCM4750, S. aureus methicillin-resistant CCM 4750; for MBC: CCM4750, S. aureus methicillin-resistant CCM 4750, inactivating 99.9% of inoculum
Method: as §3

[7] = system: Klebsiella pneumoniae CCM 4415; test: Broth microdilution MIC and MBC; conditions: for MIC: CCM4415, K. pneumoniae CCM 4415; for MBC: CCM4415, K. pneumoniae CCM 4415, inactivating 99.9% of inoculum
Method: as §3

[8] = system: Enterococcus faecalis CCM 4224; test: Broth microdilution MIC and MBC; conditions: for MIC: CCM4224, E. faecalis CCM 4224; for MBC: CCM4224, E. faecalis CCM 4224, inactivating 99.9% of inoculum
Method: as §3

[9] = system: Proteus mirabilis CCM 7188; test: Broth microdilution MIC and MBC; conditions: for MIC: CCM7188, P. mirabilis CCM 7188; for MBC: CCM7188, P. mirabilis CCM 7188, inactivating 99.9% of inoculum
Method: as §3

[10] = system: Pseudomonas aeruginosa CCM 3955; test: Broth microdilution MIC and MBC; conditions: for MIC / MBC: Pseudomonas aeruginosa, CCM3955, P. aeruginosa CCM 3955; for MBC: inactivating 99.9% of inoculum
Method: as §3

SMILES	IC50 [1] [µM]	MIC [4] [µM]	MIC [5] [µM]	MIC [6] [µM]	MIC [7] [µM]	MIC [8] [µM]	MIC [9] [µM]	MIC/MBC ([10]; P. aeruginosa, corresponding to the μM value) [µg/mL]	MIC [10] [µM]	IC50 [2] [µM]	IC50 [3] [µM]	MBC [4] [µM]	MBC [5] [µM]	MBC [6] [µM]	MBC [7] [µM]	MBC [8] [µM]	MBC [9] [µM]	MBC [10] [µM]
O=C(O)C=Cc1ccc(O)c(O)c1 [CA, 3-(3,4-dihydroxyphenyl)-2-propenoic acid, reference compound]	> 300	6940 (≈ 1250 µg/mL)	6940 (≈ 1250 µg/mL)	6940 (≈ 1250 µg/mL)	6940 (≈ 1250 µg/mL)	13900 (≈ 2500 µg/mL)	6940 (≈ 1250 µg/mL)	625 (≈ 3.47 mM)	3470 (≈ 625 µg/mL)	> 300	> 300	13900 (≈ 2500 µg/mL)	13900 (≈ 2500 µg/mL)	13900 (≈ 2500 µg/mL)	6940 (≈ 1250 µg/mL)	27800 (≈ 5000 µg/mL)	6940 (≈ 1250 µg/mL)	3470 (≈ 625 µg/mL)
CC(=O)Oc1ccc(/C=C/C(=O)OCCCCCC[P+](c2ccccc2)(c2ccccc2)c2ccccc2)cc1OC(C)=O [CAP 6, P,P,P-triphenyl-6-{(2E)-3-[3,4-(diacetyloxy)penyl]prop-2-enoyloxy}hexane-1-phosphanium bromide]	30.5 to 44.5	14	227	14	28	57	453		453	44.4 ± 2.6	53.7 ± 0.2	14	227	14	28	57	453	453
CC(=O)Oc1ccc(/C=C/C(=O)OCCCCCCCC[P+](c2ccccc2)(c2ccccc2)c2ccccc2)cc1OC(C)=O [CAP 8, P,P,P-triphenyl-8-{(2E)-3-[3,4-(diacetyloxy)penyl]prop-2-enoyloxy}okctane-1-phosphanium bromide]	4.8 to 9.4	14	435	27	27	27	218		871	38.2 ± 1.8	42.3 ± 1.1	14	435	27	27	27	435	871

Second part, led by results:

IC50 [1] [µM]	MIC [4] [µM]	MIC [5] [µM]	MIC [6] [µM]	MIC [7] [µM]	MIC [8] [µM]	MIC [9] [µM]	MIC/MBC ([10]; P. aeruginosa, corresponding to the μM value) [µg/mL]	MIC [10] [µM]	SMILES	IC50 [2] [µM]	IC50 [3] [µM]	MBC [4] [µM]	MBC [5] [µM]	MBC [6] [µM]	MBC [7] [µM]	MBC [8] [µM]	MBC [9] [µM]	MBC [10] [µM]
0.9 to 9.5	13	419	13	105	26	210		838	CC(=O)Oc1ccc(/C=C/C(=O)OCCCCCCCCCC[P+](c2ccccc2)(c2ccccc2)c2ccccc2)cc1OC(C)=O [CAP 10, P,P,P-triphenyl-10-{(2E)-3-[3,4-(diacetyloxy)penyl]prop-2-enoyloxy}decane-1-phosphanium bromide]	28 ± 1.3	31.1 ± 2.3	13	419	26	105	26	419	676
0.9 to 9.5	50	808	25	404	25	404		404	CC(=O)Oc1ccc(/C=C/C(=O)OCCCCCCCCCCCC[P+](c2ccccc2)(c2ccccc2)c2ccccc2)cc1OC(C)=O [CAP 12, P,P,P-triphenyl-12-{(2E)-3-[3,4-(diacetyloxy)penyl]prop-2-enoyloxy}dodecane-1-phosphanium bromide]	32.5 ± 0.9	33.7 ± 1.5	50	808	25	404	25	404	808
